Data taken from patent US20150353495A1 (PORTOLA PHARMACEUTICALS, INC., priority 2010, published 2015).

Key:
[1] = tested on: JAK1/3 signaling to STAT5 in primary T cells; test: IL2 stimulation of JAK1/3 signaling to STAT5 in primary T cells (pSTAT5 Y694, FACS); format: cell-based; conditions: T-cell; for inhibition at 0.2 µM: 0.2 uM compound, read-out: IL-2/STAT5 Percent Inhibition at 0.2 uM; for inhibition at 1 µM: 1.0 μM compound, read-out: IL-2/STAT5 Percent Inhibition at 1.0 μM
Method: IL2 Stimulation of JAK1/3 Signaling to STAT5 in Primary T Cells:
The effect of JAK inhibitors on cytokine signaling pathways utilizing JAK3 was determined using an IL2 stimulation assay. IL2 engages a receptor complex that contains the IL2 receptor alpha and beta subunits, and the common gamma chain, to initiate activation of JAK1 and JAK3 leading to phosphorylation of STAT5 at tyrosine position 694. Lymphocytes are isolated from heparinized whole blood over a ficoll gradient, then resuspended in tissue culture media containing 10% fetal calf serum at 10×10̂6 cells/ml. 100 μl aliquots are pre-treated for 1 hour with various concentrations of compound, and then stimulated for 12 minutes with 100 U/ml IL2. The signaling reaction is terminated by fixing in 2% paraformaldehyde for 10 minutes at room temperature. Fixed cells are then washed and permeablized by suspension in 50% methanol (in PBS) at −80° C. Following overnight incubation at 4° C., cells are washed and resuspended in PBS containing 0.5% bovine serum albumin containing CD3-APC and pSTAT5 Y694-PE conjugated antibodies. After 1 hour incubation, cells are washed and the extent of STAT5 phosphorlyation in T cells is measured by FACS analysis.

[2] = molecular target: T1, JAK1 (Homo sapiens, UniProt P23458); test: Z'-LYTE kinase assay JAK1; format: biochemical
T1 construct: 5 μl of catalytic domain recombinant Kinase enzyme+Tyr peptide substrate (Invitrogen, CA); purchased Invitrogen
T1 sequence (P23458 875-1153 limits assumed): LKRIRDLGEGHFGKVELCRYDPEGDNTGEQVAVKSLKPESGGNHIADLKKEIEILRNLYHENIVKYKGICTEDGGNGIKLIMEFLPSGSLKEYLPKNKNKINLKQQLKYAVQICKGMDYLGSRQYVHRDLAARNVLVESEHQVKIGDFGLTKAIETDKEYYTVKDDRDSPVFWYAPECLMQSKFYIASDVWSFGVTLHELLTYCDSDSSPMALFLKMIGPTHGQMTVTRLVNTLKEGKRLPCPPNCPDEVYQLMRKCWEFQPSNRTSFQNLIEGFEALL
Procedure, shortened: (§1)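 In duplicate wells, each test molecule (1% final DMSO) is incubated with recombinant kinase catalytic domain, Tyr6 peptide substrate and ATP for one hour at room temperature; a site-specific protease is then added for another hour before fluorescence reading.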

[3] = molecular target: T2, JAK2 (Homo sapiens, UniProt O60674); test: Z'-LYTE kinase assay JAK2; format: biochemical
T2 construct: 5 μl of catalytic domain recombinant Kinase enzyme+Tyr peptide substrate (Invitrogen, CA); purchased Invitrogen
T2 sequence (O60674 849-1124 limits assumed): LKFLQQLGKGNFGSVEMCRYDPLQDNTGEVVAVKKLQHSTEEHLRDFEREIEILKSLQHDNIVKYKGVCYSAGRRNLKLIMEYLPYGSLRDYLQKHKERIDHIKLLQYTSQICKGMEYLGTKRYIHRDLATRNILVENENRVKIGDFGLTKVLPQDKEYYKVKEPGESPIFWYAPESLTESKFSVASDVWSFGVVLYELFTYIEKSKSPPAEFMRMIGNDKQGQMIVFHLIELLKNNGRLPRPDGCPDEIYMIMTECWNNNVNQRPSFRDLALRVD
Procedure, shortened: as §1

[4] = molecular target: T3, JAK3 (Homo sapiens, UniProt P52333); test: Z'-LYTE kinase assay JAK3; format: biochemical
T3 construct: 5 μl of catalytic domain recombinant Kinase enzyme+Tyr peptide substrate (Invitrogen, CA); purchased Invitrogen
T3 sequence (P52333 822-1111 limits assumed): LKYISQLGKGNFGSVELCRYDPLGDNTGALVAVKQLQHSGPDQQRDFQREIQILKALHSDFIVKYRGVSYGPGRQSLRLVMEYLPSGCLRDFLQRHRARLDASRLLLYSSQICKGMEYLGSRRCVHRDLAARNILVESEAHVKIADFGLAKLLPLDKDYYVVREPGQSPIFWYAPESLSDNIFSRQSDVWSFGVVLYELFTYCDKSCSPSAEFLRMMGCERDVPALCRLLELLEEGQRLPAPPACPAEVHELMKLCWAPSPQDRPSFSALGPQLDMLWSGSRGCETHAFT
Procedure, shortened: as §1

[5] = molecular target: T4, TYK2 (Homo sapiens, UniProt P29597); test: Z'-LYTE kinase assay TYK2; format: biochemical
T4 construct: 5 μl of catalytic domain recombinant Kinase enzyme+Tyr peptide substrate (Invitrogen, CA); purchased Invitrogen
T4 sequence (P29597 897-1176 limits assumed): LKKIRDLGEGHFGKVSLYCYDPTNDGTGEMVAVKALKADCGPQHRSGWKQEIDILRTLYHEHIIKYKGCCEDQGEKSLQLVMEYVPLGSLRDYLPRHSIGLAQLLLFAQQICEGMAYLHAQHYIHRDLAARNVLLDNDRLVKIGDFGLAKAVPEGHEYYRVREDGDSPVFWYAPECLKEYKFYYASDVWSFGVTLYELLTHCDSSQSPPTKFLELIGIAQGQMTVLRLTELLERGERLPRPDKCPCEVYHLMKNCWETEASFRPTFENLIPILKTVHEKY
Procedure, shortened: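 IC50 derived by 4-parameter logistic fit of percent substrate phosphorylation relative to uninhibited wells. Tyr6 peptide phosphorylated by recombinant TYK2 catalytic domain for 1 h at room temperature (1% DMSO), cleaved by development protease 1 h, FRET emission ratio 445/520 nm.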

[6] = tested on: JAK1/3 signaling to STAT6 in Ramos B cells; test: IL4 stimulation of JAK1/3 signaling to STAT6 in Ramos B cells (pSTAT6 Y641, FACS); format: cell-based; conditions: Homo sapiens; for inhibition at 0.2 µM: 0.2 uM compound, read-out: IL-4/STAT6 in Ramos Percent Inhibition at 0.2 uM; for inhibition at 1 µM: 1.0 uM compound, read-out: IL-4/STAT6 in Ramos Percent Inhibition at 1.0 uM
Procedure, shortened: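 Phospho-STAT6 Y641 was measured by FACS using a PE-labelled antibody after fixation (2% paraformaldehyde) and methanol permeabilization. Before this, Ramos cells were exposed to compound for 1 h, then to 15 ng IL4 for 15 min.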

IC50 [2] | IC50 [3] | IC50 [4] | IC50 [5] | Compound | inhibition at 0.2 µM [1] | inhibition at 1 µM [1] | inhibition at 0.2 µM [6] | inhibition at 1 µM [6]
100 to 1000 nM | 10 to 100 nM | 1 to 10 nM | 100 to 1000 nM | CCC(=O)N1CCN(c2ccc(Nc3cc(NCc4cccc(F)c4F)c(C(N)=O)cn3)cc2)CC1 [Example 435, 4-(2,3-difluorobenzylamino)-6-(4-(4-propionylpiperazin-1-yl)phenylamino)nicotinamide] | 63% | 102% | – | –
100 to 1000 nM | 100 to 1000 nM | 1 to 10 nM | 100 to 1000 nM | CS(=O)(=O)Nc1cccc(Nc2cc(NCc3ccccc3)c(C(N)=O)cn2)c1 [Example 388] | 18% | 55% | – | –
> 1000 nM | 10 to 100 nM | 1 to 10 nM | > 1000 nM | Cc1cc(Nc2cc(NCc3cccc4cc[nH]c34)c(C(N)=O)cn2)ccc1C(=O)N1CCCC1 [Example 464, 4-((1H-indol-7-yl)methylamino)-6-(3-methyl-4-(pyrrolidine-1-carbonyl)phenylamino)nicotinamide] | 22% | 55% | – | –
100 to 1000 nM | 100 to 1000 nM | 10 to 100 nM | > 1000 nM | NC(=O)c1cnc(Nc2ccc(OC(F)F)cc2)cc1NCc1cccc2[nH]ccc12 [Example 321, 4-((1H-indol-4-yl)methylamino)-6-(4-(difluoromethoxy)phenylamino)nicotinamide] | 42% | 94% | – | –
> 1000 nM | > 1000 nM | 10 to 100 nM | – | NC(=O)c1cnc(Nc2ccc(N3CCN(c4ccccn4)CC3)cc2)cc1NCc1ccccc1 [Example 385] | 37% | 62% | – | –
10 to 100 nM | 10 to 100 nM | 1 to 10 nM | 10 to 100 nM | CCC(=O)N1CCC(c2ccc(Nc3cc(NCc4cccc5[nH]ccc45)c(C(N)=O)cn3)cc2)CC1 [Example 200, 4-((1H-indol-4-yl)methylamino)-6-(4-(1-propionylpiperidin-4-yl)phenylamino)nicotinamide] | 77% | 103% | – | –
100 to 1000 nM | 100 to 1000 nM | 1 to 10 nM | 100 to 1000 nM | NC(=O)c1cnc(Nc2ccc(F)cc2)cc1NCc1cccc2[nH]ccc12 [Example 319, 4-((1H-indol-4-yl)methylamino)-6-(4-fluorophenylamino)nicotinamide] | 81% | 103% | – | –
> 1000 nM | 10 to 100 nM | 1 to 10 nM | > 1000 nM | Cc1cc(Nc2cc(NCc3cccc4cc[nH]c34)c(C(N)=O)cn2)ccc1C(=O)N(C)C [Example 283, 4-((1H-indol-7-yl)methylamino)-6-(4-(dimethylcarbamoyl)-3-methylphenylamino)nicotinamide] | 42% | 65% | – | –
10 to 100 nM | 10 to 100 nM | 1 to 10 nM | 100 to 1000 nM | COc1ccc(Nc2cc(NCc3cccc4[nH]ccc34)c(C(N)=O)cn2)cc1 [Example 294, 4-((1H-indol-4-yl)methylamino)-6-(4-methoxyphenylamino)nicotinamide] | 75% | 102% | – | –
1 to 10 nM | < 1 nM | < 1 nM | 1 to 10 nM | Cc1cc(Nc2cc(NCc3cccc4[nH]ccc34)c(C(N)=O)cn2)ccc1C(=O)N1CCCC1 [Example 461, 4-((1H-indol-4-yl)methylamino)-6-(3-methyl-4-(pyrrolidine-1-carbonyl)phenylamino)nicotinamide] | 94% | 101% | – | –
> 1000 nM | 100 to 1000 nM | 10 to 100 nM | > 1000 nM | COc1ccc(Nc2cc(NCc3cccc4ccsc34)c(C(N)=O)cn2)cc1 [Example 284, 4-(benzo[b]thiophen-7-ylmethylamino)-6-(4-methoxyphenylamino)nicotinamide] | 39% | 75% | – | –
100 to 1000 nM | 100 to 1000 nM | 10 to 100 nM | > 1000 nM | NC(=O)c1cnc(Nc2cccc(C(=O)N3CCC3)c2)cc1NCc1ccccc1 [Example 45, 6-(3-(azetidine-1-carbonyl)phenylamino)-4-(benzylamino)nicotinamide] | 22% | 25% | – | –
10 to 100 nM | 10 to 100 nM | < 1 nM | 100 to 1000 nM | Cc1cc(Nc2cc(NCc3cccc4ccsc34)c(C(N)=O)cn2)ccc1C(=O)N(C)C [Example 285, 4-(benzo[b]thiophen-7-ylmethylamino)-6-(4-(dimethylcarbamoyl)-3-methylphenylamino)nicotinamide] | 58% | 96% | – | –
100 to 1000 nM | 100 to 1000 nM | 1 to 10 nM | 100 to 1000 nM | CS(=O)(=O)Nc1ccc(Nc2cc(NCc3ccccc3)c(C(N)=O)cn2)cc1 [Example 389] | 56% | 88% | – | –
100 to 1000 nM | 10 to 100 nM | 1 to 10 nM | – | CC(=O)N1CC(c2ccc(Nc3cc(NCc4cccc5ccsc45)c(C(N)=O)cn3)cc2)C1 [Example 333, 6-(4-(1-acetylazetidin-3-yl)phenylamino)-4-(benzo[b]thiophen-7-ylmethylamino)nicotinamide] | 35% | 84% | – | –
100 to 1000 nM | 10 to 100 nM | 1 to 10 nM | 10 to 100 nM | Cc1cc(Nc2cc(NCc3cccc4ccsc34)c(C(N)=O)cn2)ccc1C(=O)N1CCCC1 [Example 458, 4-(benzo[b]thiophen-7-ylmethylamino)-6-(3-methyl-4-(pyrrolidine-1-carbonyl)phenylamino)nicotinamide] | 49% | 104% | – | –
100 to 1000 nM | 100 to 1000 nM | 1 to 10 nM | – | CN(C)C(=O)c1ccc(Nc2cc(NCc3cccc(-c4ccncc4)c3)c(C(N)=O)cn2)cc1 [Example 412, 6-(4-(dimethylcarbamoyl)phenylamino)-4-(3-(pyridine-4-yl)benzylamino)nicotinamide] | 25% | 59% | – | –
100 to 1000 nM | 10 to 100 nM | 1 to 10 nM | 100 to 1000 nM | NC(=O)c1cnc(Nc2ccc(N3CCCCC3=O)cc2)cc1NCc1cc(F)ccc1F [Example 94, 4-(2,5-difluorobenzylamino)-6-(4-(2-oxopiperidin-1-yl)phenylamino)nicotinamide] | – | – | 35% | 62%
100 to 1000 nM | 100 to 1000 nM | 1 to 10 nM | 10 to 100 nM | CC(=O)N1CCN(c2ccc(Nc3cc(NCc4cccs4)c(C(N)=O)cn3)cc2)CC1 [Example 122, 6-(4-(4-acetylpiperazin-1-yl)phenylamino)-4-(thiophen-2-ylmethylamino)nicotinamide] | – | – | 34% | 57%
100 to 1000 nM | 10 to 100 nM | 1 to 10 nM | 100 to 1000 nM | CC(=O)N1CCN(c2ccc(Nc3cc(NCc4ccccc4F)c(C(N)=O)cn3)cc2)CC1 [Example 258, 6-(4-(4-acetylpiperazin-1-yl)phenylamino)-4-(2-fluorobenzylamino)nicotinamide] | – | – | 39% | 63%
100 to 1000 nM | 10 to 100 nM | 1 to 10 nM | > 1000 nM | NC(=O)c1cnc(Nc2cccc(N3CCOCC3)c2)cc1NCc1cccc(F)c1 [Example 65, 4-(3-fluorobenzylamino)-6-(3-morpholinophenylamino)nicotinamide] | – | – | 28% | 49%
